Patent US6169181A, “Compounds useful to treat retroviral infections” (Pharmacia & Upjohn Company, priority 1998, dated 2001)
Like-named read-outs stand apart in the source and are kept apart here.

Columns and labels:
HIV-1 protease [1] = target: T1, HIV-1 protease (Human immunodeficiency virus type 1 group M subtype B, UniProt P04585); assay: biochemical; conditions: read-out: Protease % Inhib
Outline: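 A substrate biotinylated at the N-terminal arginine and FITC-labelled at the C-terminal lysine was incubated with HIV-1 protease (10 μl of 0.1 μM) and compound for 1 h in the dark at room temperature. Buffer was 0.1 M sodium acetate pH 5.5, 1.0 M NaCl, 0.05% NP-40. Labelled product was separated from substrate using streptavidin beads and filtration, and the fluorescence gave percent inhibition.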

HIV-1 protease [2] = target: T1, HIV-1 protease; assay: biochemical
Outline: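 Biotinylated, FITC-labelled peptide substrate cleaved in 0.1 M sodium acetate pH 5.5, 1.0 M NaCl, 0.05% NP-40, room temperature. Filtered labelled product read by fluorescence; nonlinear least-squares fit.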

[3] = Table I, read-out: HIV Protease FITC Assay Ki

Row | Compound | inhibition at 0.123 µM (HIV-1 protease [1]; Table I, Dose 0.123 μM) | inhibition at 0.37 µM (HIV-1 protease [1]; Table I, Dose 0.370 μM) | inhibition at 1.1 µM (HIV-1 protease [1]; Table I, Dose 1.100 μM) | inhibition at 3.3 µM (HIV-1 protease [1]; Table I, Dose 3.300 μM) | inhibition at 10 µM (HIV-1 protease [1]; Table I, Dose 10.000 μM) | inhibition at 30 µM (HIV-1 protease [1]; Table I, Dose 30.000 μM) | Ki (HIV-1 protease [2]; read-out: HIV Protease FITC Assay Ki) | Ki (HIV-1 protease [2]; [3]) | inhibition at 0.123 µM (HIV-1 protease [1]) | inhibition at 0.37 µM (HIV-1 protease [1]) | inhibition at 1.1 µM (HIV-1 protease [1]) | inhibition at 3.3 µM (HIV-1 protease [1]) | inhibition at 10 µM (HIV-1 protease [1]) | inhibition at 30 µM (HIV-1 protease [1]) | Ki (HIV-1 protease [2]; HIV Protease FITC Assay Ki)
1 | CC[C@H](Cc1ccccc1)c1cc(O)c(C(c2cccc(NS(=O)(=O)c3ncc[nH]3)c2)C2CC2)c(=O)o1 (stereo partly drawn) [Example 147, N-(3-{Cyclopropyl-[6-(1-(R)-ethylphenethyl)-4-hydroxy-2-oxo-2H-pyran-3-yl]-methyl}-phenyl)-1H-imidazole-2-sulfonamide] | 77.5% | 103% | 112% | 110% | 114% | 108% | 1 nM | – | – | – | – | – | – | – | –
2 | CCC(Cc1ccccc1)c1cc(O)c(C(c2cccc(NS(=O)(=O)c3ccc([N+](=O)[O-])cc3)c2)C2CC2)c(=O)o1 (stereo not drawn) [Example 150, N-(3-{Cyclopropyl-[6-(1-ethylphenethyl)-4-hydroxy-2-oxo-2H-pyran-3-yl]-methyl}-phenyl)-4-nitrobenzenesulfonamide] | 78.4% | 96.5% | 100% | 103% | 107% | 109% | – | 5.9 nM | – | – | – | – | – | – | –
3 | COCCOCCOCCOc1ccc2c(O)c(C(c3cccc(NS(=O)(=O)c4cn(C)cn4)c3)C3CC3)c(=O)oc2c1 (stereo not drawn) [Example 151, N-(3-{Cyclopropyl-[7-(2-(2-(2-methoxyethoxy)-ethoxy)ethoxy)-4-hydroxycoumarin-3-yl]-methyl}-phenyl)-1-methyl-1H-imidazole-4-sulfonamide] | – | – | – | – | – | – | – | – | 111% | 115% | 118% | 119% | 116% | 115% | 0.36 nM
4 | COc1ccc2c(O)c(C(c3cccc(NS(=O)(=O)c4cn(C)cn4)c3)C3CC3)c(=O)oc2c1 (stereo not drawn) [Example 152, N-(3-{Cyclopropyl-[7-methoxy-4-hydroxycoumarin-3-yl]-methyl}-phenyl)-1-methyl-1H-imidazole-4-sulfonamide] | – | – | – | – | – | – | – | – | 11.5% | 80.2% | 95.8% | 94.4% | 95.5% | 96.5% | 0.71 nM
5 | COCCOCCOCCOc1ccc2c(O)c(C(c3cccc(NS(=O)(=O)c4cccc5cccnc45)c3)C3CC3)c(=O)oc2c1 (stereo not drawn) [Example 153, N-(3-{Cyclopropyl-[7-(2-(2-(2-methoxyethoxy)-ethoxy)ethoxy)-4-hydroxycoumarin-3-yl]-methyl}-phenyl)-8-quinolinesulfonamide] | 81.3% | 91.1% | 100% | 104% | 103% | 101% | – | 1.85 nM | – | – | – | – | – | – | –
6 | COCCOCCOCCOc1ccc2c(O)c(C(c3cccc(NS(=O)(=O)c4ccccn4)c3)C3CC3)c(=O)oc2c1 (stereo not drawn) [Example 154, N-(3-{Cyclopropyl-[7-(2-(2-(2-methoxyethoxy)-ethoxy)ethoxy)-4-hydroxycoumarin-3-yl]-methyl}-phenyl)-2-pyridinesulfonamide] | – | – | – | – | – | – | – | – | 99.8% | 98.2% | 99.5% | 97.6% | 104% | 99.2% | 0.22 nM
7 | CN(c1cccc(C(c2c(O)c3c(oc2=O)CCCCCC3)C2CC2)c1)S(=O)(=O)c1ccc(C#N)cc1 (stereo not drawn) [Example 192, 4-Cyano-N-methyl-N-[3-[cyclopropyl(5,6,7,8,9,10-hexahydro-4-hydroxy-2-oxo-2H-cycloocta[b]pyran-3-yl)methyl]phenyl]-benzenesulfonamide] | 44% | 76.3% | 94% | 96.9% | 103% | 94.4% | – | 7.2 nM | – | – | – | – | – | – | –
8 | CN(c1cccc(C(c2c(O)c3c(oc2=O)CCCCCC3)C2CC2)c1)S(=O)(=O)c1ccc(F)cc1 (stereo not drawn) [Example 193, 4-Fluoro-N-methyl-N-[3-[cyclopropyl(5,6,7,8,9,10-hexahydro-4-hydroxy-2-oxo-2H-cycloocta[b]pyran-3-yl)methyl]phenyl]-benzenesulfonamide] | 18.4% | 40.3% | 77.7% | 98.1% | 108% | 103% | – | 35 nM | – | – | – | – | – | – | –
9 | CN(c1cccc(C(c2c(O)c3c(oc2=O)CCCCCC3)C2CC2)c1)S(=O)(=O)c1cn(C)cn1 (stereo not drawn) [Example 195, N-methyl-N-[3-[cyclopropyl(5,6,7,8,9,10-hexahydro-4-hydroxy-2-oxo-2H-cycloocta[b]pyran-3-yl)methyl]phenyl]-1H-Imidazole-1-methyl-sulfonamide] | 60.9% | 85.1% | 90.8% | 90.8% | 93.1% | 92.7% | – | 3.7 nM | – | – | – | – | – | – | –
